Results as given in patent US20210130769A1, “Method for Single Cell Encapsulation via Metabolic Glycoengineering and Copper-Free Click Chemistry” (The Board of Trustees Of the Leland Stanford Junior …, priority 2019, published 2021).
Entries after “also recorded” stand apart in the source; their conditions may differ.

System: actin polymerization
Experiment: Inhibition study: actin polymerization inhibitor/activator, VEGFB ELISA
Format: cell-based, human
Conditions: 24 hr
Experimental: After cell encapsulation with two different molecular weight polymers such as 5 kDa and 30 kDa, the cells were rinsed and resuspended in the media containing actin polymerization inhibitor (Cytochalastin D (CytoD): 2 μM) and activator (lysophosphatidic (LPA): […] After the incubation for 24 hr with different pharmacological chemicals, the supernatants from different treatment groups were collected to measure VEGFB production from the cells using ELISAs as above.

Row | Compound | VEGFB concentration in NPCs coated with 30 kDa PEG (2 μM CytoD) | VEGFB production in NPCs coated with 5 kDa PEG (2 μM CytoD) | VEGFB production in 30 kDa encapsulated NPCs (LPA)
1 | C=C1[C@@H](C)[C@H]2[C@H](Cc3ccccc3)NC(=O)[C@]23[C@H](OC(C)=O)/C=C/[C@@](C)(O)C(=O)[C@@H](C)C/C=C/[C@H]3[C@@H]1O [CytoD, Cytochalastin D] | not significantly different | significantly different from other groups; also recorded: increased VEGFB production | –
2 | lysophosphatidic acid [LPA] | – | – | significantly different from other groups; also recorded: decreased production of VEGFB
